{"source": "patent EP0871441B1", "about": "“DFMO AND TAXOL FOR THE TREATMENT OR PREVENTION OF BREAST CANCER” (Ilex Oncology, Inc., priority 1996, dated 1998)", "key": {"[1]": {"test_system": "MDA-MB-231 human breast tumor", "assay": "Tumor growth inhibition of MDA-MB-231 breast tumor implanted s.c. in nude mice", "type": "in vivo", "conditions": "for % Tumor Growth Inhibition: with respect to control", "experimental": "The MDA-MB-23 1 human breast tumor cell line is estrogen independent. The cell line cannot be maintained in vitro and so was maintained in vivo in host nude mice. The tumor growth inhibition studies were conducted by transplanting MDA-MB-231 tumor cells from the host nude mouse to the subject and control nude mice of the study. The MDA-MB-231 cell line can be obtained from the American Type Culture Collection as ATCC HTB 26. Nude mice are implanted s.c. by trocar with fragments of MDA-MB-231 human breast tumor cells harvested from s.c. growing tumors in nude mice hosts. When tumors are approximately 5 mm x 5 mm in size (usually about ten to twenty days after inoculation), the animals are pair-matched into treatment and control groups. Each group contains 10 tumored mice, each of which is ear-tagged and followed individually throughout the experiment. The administration of drugs or vehicle begins the day the animals are pair-matched (Day 1). The doses, route of drug administration and schedule are selected as appropriate for the study in question. If the MTD dose of an agent is not known, it is determined in an initial dosing experiment in non-tumored mice. The experiment is usually terminated when control tumors reach a size of 1 g or 2 g for the tumor models. Mice are weighed twice weekly, and tumor measurements are taken by calipers twice weekly, starting on day 1. These tumor measurements are converted to mg tumor weight by a well-known formula, and from these calculated tumor weights, the termination date can be determined. Upon termination, all mice are weighed, sacrificed, and their tumors excised. Tumors are weighed, and the mean tumor weight per group is calculated. In this model, the mean treated tumor weight/mean control tumor weight x 100% (T/C) is subtracted from 100% to give the tumor growth inhibition (TGI) for each group. The final weight of a given tumor is subtracted from its own weight at the start of treatment on day 1. This difference divided by the initial tumor weight is the % shrinkage. A mean % tumor shrinkage can be calculated from data from the mice in a group that experienced regressions. If the tumor completely disappears in a mouse, this is considered a complete regression or complete tumor shrinkage. If desired, mice with partial or total tumor regressions can be kept alive past the termination date to see whether they live to become long term, tumor-free survivors. Statistics are performed on the data using primarily the log rank-value test. In the above procedure, a reduction in the growth, number, size, metastasis and/or reoccurrence of tumor in the animal is deemed a positive response."}, "MCF-7 human breast tumor": {"test_system": "MCF-7 human breast tumor", "assay": "Tumor growth inhibition of MCF-7 mammary carcinoma implanted s.c. in ovariectomized nude mice", "type": "in vivo", "experimental": "Female ovariectomized nude mice are implanted s.c. by trocar with 21 day release 0.25 mg estrogen pellets. The following day the mice are implanted s.c. by trocar fragments of MCF-7 mammary carcinomas harvested from s.c. growing MCF-7 tumors in nude mice hosts. When tumors are approximately 5 mm x 5 mm in size (about twenty days after inoculation), the animals are pair-matched into treatment and control groups, and the estrogen pellets removed. Each group contains 10 tumored mice, each of which is ear-tagged and followed individually throughout the experiment. The administration of drugs or vehicle begins the day the animals are pair-matched (Day 1). The doses, route of drug administration and schedule are selected as appropriate for the study in question. If the MTD dose of an agent is not known, it is determined in an initial dosing experiment in non-tumored mice. Mice are weighed twice weekly, and tumor measurements are taken by calipers twice weekly, starting on Day 1. These tumor measurements are converted to mg tumor weight by a well-known formula, L^2xW/2. The experiment is terminated when control tumors reach a size of 1 gram. […] Tumors are weighed and the mean tumor weight per group is calculated. […] A mean % tumor shrinkage can be calculated from data from the mice in a group that experienced tumor regressions. […]"}, "MCF-7 cells": {"test_system": "MCF-7 cells", "conditions": "cited from earlier work"}, "MCF-7": {"test_system": "MCF-7", "conditions": "MCF-7, estrogen-responsive; cited from earlier work"}, "T-47D": {"test_system": "T-47D", "conditions": "estrogen-responsive; cited from earlier work"}, "BT-20": {"test_system": "BT-20", "conditions": "BT-20, estrogen-unresponsive; cited from earlier work"}, "ODC": {"target": "T1, ODC (Homo sapiens, UniProt P11926)", "T1 construct": "endogenous in cells; host or cells: MCF-7 cells, estrogen-treated", "T1 sequence (P11926 1-461)": "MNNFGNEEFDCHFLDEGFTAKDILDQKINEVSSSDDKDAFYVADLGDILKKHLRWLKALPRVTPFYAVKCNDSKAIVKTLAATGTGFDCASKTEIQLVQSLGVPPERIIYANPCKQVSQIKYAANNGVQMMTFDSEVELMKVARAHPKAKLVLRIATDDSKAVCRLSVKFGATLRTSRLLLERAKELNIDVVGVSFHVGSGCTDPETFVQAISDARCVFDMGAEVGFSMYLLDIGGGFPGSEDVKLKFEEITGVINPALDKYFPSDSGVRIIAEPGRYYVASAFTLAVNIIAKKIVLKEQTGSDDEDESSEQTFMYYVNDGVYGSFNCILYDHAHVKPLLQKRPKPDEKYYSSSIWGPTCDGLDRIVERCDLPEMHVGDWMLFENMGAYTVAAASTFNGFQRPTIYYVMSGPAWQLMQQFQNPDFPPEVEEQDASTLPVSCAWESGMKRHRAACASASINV", "conditions": "DFMO 5 mM, MCF-7 cells; cited from earlier work"}, "[2]": {"conditions": "taxol alone 20 mg/kg, i.p., qdx5"}, "[3]": {"conditions": "DFMO alone 0.5% in drinking water, p.o., ad libitum"}, "[4]": {"conditions": "DFMO alone 3% in drinking water, p.o., ad libitum"}}, "note": "“And” between values parts separate entries of the source, which are not always exact repeats. Equal entries are not always repeated.", "data": [{"molecule": "CC(=O)O[C@H]1C(=O)[C@@]2(C)[C@H]([C@H](OC(=O)c3ccccc3)[C@]3(O)C[C@H](OC(=O)[C@H](O)[C@@H](NC(=O)c4ccccc4)c4ccccc4)C(C)=C1C3(C)C)[C@]1(OC(C)=O)CO[C@@H]1C[C@@H]2O", "note": "[Taxol]", "values": [{"measurement": "Final Tumor Wt. (Mean±SEM)", "setting": "[1]; [2]", "result": "301.6±72.9"}, {"measurement": "% Tumor Growth Inhibition", "setting": "[1]; [2]", "result": 83.7, "unit": "%"}, {"measurement": "% Tumor Growth Inhibition", "setting": "[1]; taxol alone 20 mg/kg, i.p., qdx5, listed as taxol", "result": 84, "unit": "%"}, {"measurement": "tumor growth inhibition (TGI) with respect to control", "setting": "MCF-7 human breast tumor; taxol alone 16 mg/kg, i.p., qdx5", "result": 28, "unit": "%"}]}, {"molecule": "NCCC[C@](N)(C(=O)O)C(F)F", "note": "(racemic) [DFMO, alpha-difluoromethylornithine]", "values": [{"measurement": "Final Tumor Wt. (Mean±SEM)", "setting": "[1]; [3]", "result": "1276.3±398.6"}, {"measurement": "% Tumor Growth Inhibition", "setting": "[1]; [3]", "result": "19% and 19.2%"}, {"measurement": "Final Tumor Wt. (Mean±SEM)", "setting": "[1]; [4]", "result": "782.7±111.4"}, {"measurement": "% Tumor Growth Inhibition", "setting": "[1]; [4]", "result": "52% and 51.8%"}, {"measurement": "tumor growth inhibition (TGI) with respect to control", "setting": "MCF-7 human breast tumor; DFMO alone 0.5% wt in drinking water, p.o., ad libitum", "result": 44, "unit": "%"}, {"measurement": "proliferation of MCF-7 cells, % of the controls", "setting": "MCF-7 cells; 0.1 mM DFMO, remaining proliferation", "result": 75, "unit": "%"}, {"measurement": "inhibition of proliferation", "setting": "MCF-7", "result": 80, "unit": "%"}, {"measurement": "inhibition of proliferation", "setting": "T-47D", "result": 80, "unit": "%"}, {"measurement": "inhibition of proliferation", "setting": "BT-20", "result": 50, "unit": "%"}, {"measurement": "ODC activity", "setting": "ODC", "result": "fully inhibited"}]}, {"molecule": "4-hydroxytamoxifen", "values": [{"measurement": "cell growth reduced to", "setting": "MCF-7 cells; 0.1µM 4-hydroxytamoxifen, remaining growth", "result": 72, "unit": "%"}]}]}
